# Values of other authors in US8273685B2, “Agrochemical composition” (Nippon Soda Co., Ltd., priority 2006, dated 2012).
# Conditions: 1-octanol/water
row,SMILES,Log P
1,"COC(=O)c1c(C(F)F)nc(C(F)(F)F)c(C2=NCCS2)c1CC(C)C [Thiazopyr, methyl 2-difluoromethyl-5-(4,5-dihydro-1,3-triazol-2-yl)-4-isobutyl-6-trifluoromethylnicotinate]",3.89
2,"CCN(Cc1c(F)cccc1Cl)c1c([N+](=O)[O-])cc(C(F)(F)F)cc1[N+](=O)[O-] [Flumetralin, N-(2-chloro-6-fluorobenzyl)-N-ethyl-alpha,alpha,alpha-trifluoro-2,6-dinitro-p-toluidine]",> 3
3,"O=C(NC(=O)c1c(F)cccc1F)Nc1ccc(Cl)c(Oc2ncc(C(F)(F)F)cc2Cl)c1 [Fluazuron, 1-[4-chloro-3-(3-chloro-5-trifluoromethyl-2-pyridyloxy)phenyl]-3-(2,6-difluorobenzoyl)urea]",5.1
4,"O=C(NC(=O)c1c(F)cccc1F)Nc1cc(Cl)c(OC(F)(F)C(F)F)c(Cl)c1 [Hexaflumuron, 1-[3,5-dichloro-4-(1,1,2,2-tetrafluoroethoxy)phenyl]-3-(2,6-difluorobenzoyl)urea]",4.68
5,"Cc1c(F)c(F)c(COC(=O)[C@@H]2[C@H](/C=C(\Cl)C(F)(F)F)C2(C)C)c(F)c1F (racemic) [Tefluthrin, 2,3,5,6-tetrafluoro-4-methylbenzyl (1RS,3RS)-3-[(Z)-2-chloro-3,3,3-trifluoroprop-1-enyl]-2,2-dimethylcyclopropanecarboxylat]",6.5
